Reference: patent US20170188607A1, “SOLUBILIZATION OF A SWEET MODULATOR AND FLAVOR” (Firmenich SA, priority 2014, published 2017)

Assay: Supersaturation relative to the intrinsic solubility of the compound
Type: physicochemical
Protocol: A concentrated solution 1 of (S)-1-(3-(((4-amino-2,2-dioxido-1H-benzo[c][1,2,6]thiadiazin-5-yl)oxy)methyl)piperidin-1-yl)-3-methylbutan-1-one at 0.3% (w/w) (3000 ppm) was prepared in water. pH was adjusted to 11 using NaOH to form (S)-1-(3-(((4-amino-2,2-dioxido-1H-benzo[c][1,2,6]thiadiazin-5-yl)oxy)methyl)piperidin-1-yl)-3-methylbutan-1-one sodium salt and obtain an homogeneous solution. Next, a syrup was prepared by mixing an aqueous solution of High Fructose Corn Syrup (HFCS), citric acid and deionized water. The final syrup contained 34% fructose, 0.68% citric acid, 0.1% sodium citrate and 65.22% water, with a pH of 2. An aliquot of solution 1 was diluted 100 times with the syrup to yield a final concentration of 30 ppm of (S)-1-(3-(((4-amino-2,2-dioxido-1H-benzo[c][1,2,6]thiadiazin-5-yl)oxy)methyl)piperidin-1-yl)-3-methylbutan-1-one, i.e. about 18 times above the intrinsic solubility of the compound at 3° C. The sample was kept at 3° C. and the amount of (S)-1-(3-(((4-amino-2,2-dioxido-1H-benzo[c][1,2,6]thiadiazin-5-yl)oxy)methyl)piperidin-1-yl)-3-methylbutan-1-one was measured by UV spectroscopy as a function of time. The amount of (S)-1-(3-(((4-amino-2,2-dioxido-1H-benzo[c][1,2,6]thiadiazin-5-yl)oxy)methyl)piperidin-1-yl)-3-methylbutan-1-one was reduced to 28 ppm after 1 week and first crystals were visually observed. […]
A concentrated solution 1 of (S)-1-(3-(((4-amino-2,2-dioxido-1H-benzo[c][1,2,6]thiadiazin-5-yl)oxy)methyl)piperidin-1-yl)-3-methylbutan-1-one at […] was prepared in water. pH was adjusted to 11 using NaOH to form (S)-1-(3-(((4-amino-2,2-dioxido-1H-benzo[c][1,2,6]thiadiazin-5-yl)oxy)methyl)piperidin-1-yl)-3-methylbutan-1-one sodium salt and obtain an homogeneous solution. […] The sample was kept at 3° C. and the amount of (S)-1-(3-(((4-amino-2,2-dioxido-1H-benzo[c][1,2,6]thiadiazin-5-yl)oxy)methyl)piperidin-1-yl)-3-methylbutan-1-one was measured by UV spectroscopy as a function of time. […]

With CC(C)CC(=O)N1CCC[C@H](COc2cccc3c2C(N)=NS(=O)(=O)N3)C1 [(S)-1-(3-(((4-amino-2,2-dioxido-1H-benzo[c][1,2,6]thiadiazin-5-yl)oxy)methyl)piperidin-1-yl)-3-methylbutan-1-one] the “times above the intrinsic solubility of the compound” value (from here on “times above the intrinsic solubility”) (final concentration of 18 ppm, at 3° C.) was “about 11 times”, the “times above the intrinsic solubility” value (final concentration of 30 ppm, at 3° C.) was “about 18 times” and the “times above the intrinsic solubility” value (final concentration of 100 ppm, at 20° C.) was “about 15 times”.
